Paper PMC6812009, “Covalent Aurora A regulation by the metabolic integrator coenzyme A” (Redox Biology, 2019)

Tests used:
Test in all cases: Kinase profiling screen (radioactive filter-binding assay)
Format in all cases: biochemical
[1] = molecular target: T1, p38γ MAPK (Homo sapiens, UniProt P53778); conditions: 100 μM compound, 5 μM ATP; read-out: Kinase activity, % of activity in the absence of inhibitor
T1 sequence (P53778 1-367): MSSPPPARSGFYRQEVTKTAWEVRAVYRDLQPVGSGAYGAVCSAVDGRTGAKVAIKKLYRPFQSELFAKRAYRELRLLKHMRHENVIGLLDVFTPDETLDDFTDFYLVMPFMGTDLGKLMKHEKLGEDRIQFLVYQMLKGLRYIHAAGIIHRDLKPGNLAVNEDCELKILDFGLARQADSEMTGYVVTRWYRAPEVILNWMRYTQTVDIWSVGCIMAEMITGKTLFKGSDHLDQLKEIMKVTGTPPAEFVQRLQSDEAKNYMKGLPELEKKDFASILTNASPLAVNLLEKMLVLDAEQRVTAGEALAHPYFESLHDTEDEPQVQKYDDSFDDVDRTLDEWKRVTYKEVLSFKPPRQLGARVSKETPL
Outline: (§1)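 Across 117 protein kinases, duplicate in vitro measurements were made with CoA, dpCoA and ADP present at 100 μM final. Each reaction used recombinant kinase, a model substrate and an optimal concentration of ATP.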

[2] = molecular target: JNK1 (Homo sapiens, UniProt P45983); conditions: 100 μM compound, 20 μM ATP; read-out: Kinase activity, % of activity in the absence of inhibitor
JNK1, sequence (P45983 whole entry): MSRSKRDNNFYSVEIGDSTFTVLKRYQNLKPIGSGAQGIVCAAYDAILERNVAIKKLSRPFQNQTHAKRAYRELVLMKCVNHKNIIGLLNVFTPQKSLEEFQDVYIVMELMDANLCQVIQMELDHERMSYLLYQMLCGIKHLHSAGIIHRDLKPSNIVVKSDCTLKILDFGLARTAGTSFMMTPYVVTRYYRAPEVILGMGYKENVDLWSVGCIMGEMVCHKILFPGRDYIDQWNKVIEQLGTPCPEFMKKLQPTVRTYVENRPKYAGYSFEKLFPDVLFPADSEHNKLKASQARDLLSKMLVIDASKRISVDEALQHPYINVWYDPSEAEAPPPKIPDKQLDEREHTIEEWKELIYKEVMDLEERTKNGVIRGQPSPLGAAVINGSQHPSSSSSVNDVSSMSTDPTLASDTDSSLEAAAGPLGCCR
Outline: as §1

[3] = molecular target: SRPK1 (Homo sapiens, UniProt Q96SB4); conditions: 100 μM compound, 50 μM ATP; read-out: Kinase activity, % of activity in the absence of inhibitor
SRPK1, sequence (Q96SB4 whole entry): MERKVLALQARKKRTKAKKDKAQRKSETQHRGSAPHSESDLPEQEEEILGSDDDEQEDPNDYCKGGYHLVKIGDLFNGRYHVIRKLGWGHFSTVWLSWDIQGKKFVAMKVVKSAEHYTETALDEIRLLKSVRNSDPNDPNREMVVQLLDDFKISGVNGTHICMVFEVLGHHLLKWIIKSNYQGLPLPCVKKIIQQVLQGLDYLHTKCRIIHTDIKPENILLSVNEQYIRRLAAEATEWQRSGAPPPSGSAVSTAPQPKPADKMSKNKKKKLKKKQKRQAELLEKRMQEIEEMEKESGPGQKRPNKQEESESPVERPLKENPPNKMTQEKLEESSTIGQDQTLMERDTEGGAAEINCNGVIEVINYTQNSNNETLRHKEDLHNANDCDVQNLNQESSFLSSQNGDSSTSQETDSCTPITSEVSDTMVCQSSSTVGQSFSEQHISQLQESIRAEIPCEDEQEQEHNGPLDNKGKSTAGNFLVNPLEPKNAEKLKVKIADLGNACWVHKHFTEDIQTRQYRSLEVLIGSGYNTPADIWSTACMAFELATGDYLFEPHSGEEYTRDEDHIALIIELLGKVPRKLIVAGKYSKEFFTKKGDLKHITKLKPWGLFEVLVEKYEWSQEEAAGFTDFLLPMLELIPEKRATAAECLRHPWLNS
Outline: as §1

[4] = molecular target: T2, NEK2α (Homo sapiens, UniProt P51955); conditions: 100 μM compound, 50 μM ATP; read-out: Kinase activity, % of activity in the absence of inhibitor
T2 sequence (P51955 1-445): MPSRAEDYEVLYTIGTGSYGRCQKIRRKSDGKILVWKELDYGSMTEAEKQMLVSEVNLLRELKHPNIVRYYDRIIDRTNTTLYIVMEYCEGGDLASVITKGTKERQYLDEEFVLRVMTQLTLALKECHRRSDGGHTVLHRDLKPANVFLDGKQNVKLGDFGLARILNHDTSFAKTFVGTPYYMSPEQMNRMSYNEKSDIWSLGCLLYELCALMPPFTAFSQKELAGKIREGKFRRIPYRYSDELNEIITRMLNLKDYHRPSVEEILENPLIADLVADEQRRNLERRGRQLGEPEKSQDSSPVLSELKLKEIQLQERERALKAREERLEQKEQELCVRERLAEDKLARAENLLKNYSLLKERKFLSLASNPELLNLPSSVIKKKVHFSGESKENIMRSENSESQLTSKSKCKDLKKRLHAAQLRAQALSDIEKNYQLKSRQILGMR
Outline: as §1

[5] = molecular target: CSK (Homo sapiens, UniProt P41240); conditions: 100 μM compound, 20 μM ATP; read-out: Kinase activity, % of activity in the absence of inhibitor
CSK, sequence (P41240 whole entry): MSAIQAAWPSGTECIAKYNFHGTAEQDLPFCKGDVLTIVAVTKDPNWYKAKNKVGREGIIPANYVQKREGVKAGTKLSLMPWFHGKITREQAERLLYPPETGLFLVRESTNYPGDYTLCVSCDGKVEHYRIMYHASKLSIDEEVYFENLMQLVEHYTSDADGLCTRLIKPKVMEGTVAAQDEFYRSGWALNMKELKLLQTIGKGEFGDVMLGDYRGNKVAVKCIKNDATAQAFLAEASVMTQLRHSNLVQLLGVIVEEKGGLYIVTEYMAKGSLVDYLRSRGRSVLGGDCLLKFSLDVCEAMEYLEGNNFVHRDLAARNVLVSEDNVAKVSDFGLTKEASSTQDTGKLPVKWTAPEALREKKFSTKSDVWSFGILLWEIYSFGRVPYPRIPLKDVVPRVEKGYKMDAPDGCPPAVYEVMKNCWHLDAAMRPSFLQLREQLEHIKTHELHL
Outline: as §1

[6] = molecular target: S6K1 (Homo sapiens, UniProt P23443); conditions: 100 μM compound, 20 μM ATP; read-out: Kinase activity, % of activity in the absence of inhibitor
Outline: as §1

[7] = molecular target: T3, DYRK3 (Homo sapiens, UniProt O43781); conditions: 100 μM compound, 5 μM ATP; read-out: Kinase activity, % of activity in the absence of inhibitor
T3 sequence (O43781 1-588): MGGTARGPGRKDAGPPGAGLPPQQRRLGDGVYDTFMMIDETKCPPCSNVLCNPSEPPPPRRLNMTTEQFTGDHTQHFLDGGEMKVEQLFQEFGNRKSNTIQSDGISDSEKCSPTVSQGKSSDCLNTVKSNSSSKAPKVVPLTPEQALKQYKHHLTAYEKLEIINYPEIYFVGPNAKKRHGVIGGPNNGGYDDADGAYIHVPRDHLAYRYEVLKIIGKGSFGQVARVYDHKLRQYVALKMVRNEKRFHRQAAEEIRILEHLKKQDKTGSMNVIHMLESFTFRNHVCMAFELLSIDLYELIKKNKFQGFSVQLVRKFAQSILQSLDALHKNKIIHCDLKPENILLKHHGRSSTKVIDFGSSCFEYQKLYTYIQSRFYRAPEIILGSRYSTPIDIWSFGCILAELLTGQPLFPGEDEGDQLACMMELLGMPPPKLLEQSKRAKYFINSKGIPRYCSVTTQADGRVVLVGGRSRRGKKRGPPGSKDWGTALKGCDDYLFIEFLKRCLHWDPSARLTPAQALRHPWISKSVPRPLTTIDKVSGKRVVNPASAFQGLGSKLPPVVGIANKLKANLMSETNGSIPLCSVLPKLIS
Outline: as §1

[8] = molecular target: CLK2 (Homo sapiens, UniProt P49760); conditions: 100 μM compound, 5 μM ATP; read-out: Kinase activity, % of activity in the absence of inhibitor
Outline: as §1

[9] = molecular target: PAK5 (Homo sapiens, UniProt Q9P286); conditions: 100 μM compound, 20 μM ATP; read-out: Kinase activity, % of activity in the absence of inhibitor
PAK5, sequence (Q9P286 whole entry): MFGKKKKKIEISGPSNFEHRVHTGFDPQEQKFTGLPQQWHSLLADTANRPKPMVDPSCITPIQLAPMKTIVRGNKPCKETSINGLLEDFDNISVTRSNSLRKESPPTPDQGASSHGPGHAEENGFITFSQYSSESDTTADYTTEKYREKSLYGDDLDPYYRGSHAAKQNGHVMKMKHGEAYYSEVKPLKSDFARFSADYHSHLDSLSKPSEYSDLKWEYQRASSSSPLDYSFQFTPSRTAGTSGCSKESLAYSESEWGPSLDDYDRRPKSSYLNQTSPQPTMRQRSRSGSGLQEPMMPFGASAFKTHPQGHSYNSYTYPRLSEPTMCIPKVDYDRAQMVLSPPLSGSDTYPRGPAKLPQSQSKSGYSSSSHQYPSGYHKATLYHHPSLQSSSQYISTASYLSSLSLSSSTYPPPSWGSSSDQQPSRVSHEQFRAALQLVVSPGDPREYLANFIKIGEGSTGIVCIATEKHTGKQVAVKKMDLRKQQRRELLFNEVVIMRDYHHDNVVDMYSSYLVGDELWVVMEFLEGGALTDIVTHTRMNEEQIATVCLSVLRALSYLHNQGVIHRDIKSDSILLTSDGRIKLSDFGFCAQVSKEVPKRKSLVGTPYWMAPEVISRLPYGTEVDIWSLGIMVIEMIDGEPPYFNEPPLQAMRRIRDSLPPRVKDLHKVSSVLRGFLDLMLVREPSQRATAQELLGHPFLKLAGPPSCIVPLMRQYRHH
Outline: as §1

[10] = molecular target: PKCγ (Homo sapiens, UniProt P05129); conditions: 100 μM compound, 20 μM ATP; read-out: Kinase activity, % of activity in the absence of inhibitor
Outline: as §1

[11] = molecular target: BTK (Homo sapiens, UniProt Q06187); conditions: for activity at 100 µM: 100 μM compound, 50 μM ATP, read-out: Kinase activity, % of activity in the absence of inhibitor
BTK, sequence (Q06187 whole entry): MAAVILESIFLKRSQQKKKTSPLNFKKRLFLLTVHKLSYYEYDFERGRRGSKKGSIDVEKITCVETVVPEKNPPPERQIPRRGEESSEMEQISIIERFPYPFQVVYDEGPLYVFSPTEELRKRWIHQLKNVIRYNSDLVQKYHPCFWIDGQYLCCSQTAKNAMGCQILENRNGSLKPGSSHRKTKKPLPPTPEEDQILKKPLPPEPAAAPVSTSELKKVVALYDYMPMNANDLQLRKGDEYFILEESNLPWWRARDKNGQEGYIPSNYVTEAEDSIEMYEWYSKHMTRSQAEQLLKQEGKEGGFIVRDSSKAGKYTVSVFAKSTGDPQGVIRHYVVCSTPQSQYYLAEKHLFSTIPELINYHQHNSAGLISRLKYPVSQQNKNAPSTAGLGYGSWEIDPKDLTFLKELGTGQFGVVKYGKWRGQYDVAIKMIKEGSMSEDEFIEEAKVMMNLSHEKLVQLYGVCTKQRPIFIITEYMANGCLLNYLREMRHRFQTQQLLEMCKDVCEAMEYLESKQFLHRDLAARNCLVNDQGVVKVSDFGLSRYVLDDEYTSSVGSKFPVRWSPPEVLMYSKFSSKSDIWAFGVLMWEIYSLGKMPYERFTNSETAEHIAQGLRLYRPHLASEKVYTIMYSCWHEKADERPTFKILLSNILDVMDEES
Outline: as §1

[12] = molecular target: GSK3β (Homo sapiens, UniProt P49841); conditions: 100 μM compound, 5 μM ATP; read-out: Kinase activity, % of activity in the absence of inhibitor
GSK3β, sequence (P49841 whole entry): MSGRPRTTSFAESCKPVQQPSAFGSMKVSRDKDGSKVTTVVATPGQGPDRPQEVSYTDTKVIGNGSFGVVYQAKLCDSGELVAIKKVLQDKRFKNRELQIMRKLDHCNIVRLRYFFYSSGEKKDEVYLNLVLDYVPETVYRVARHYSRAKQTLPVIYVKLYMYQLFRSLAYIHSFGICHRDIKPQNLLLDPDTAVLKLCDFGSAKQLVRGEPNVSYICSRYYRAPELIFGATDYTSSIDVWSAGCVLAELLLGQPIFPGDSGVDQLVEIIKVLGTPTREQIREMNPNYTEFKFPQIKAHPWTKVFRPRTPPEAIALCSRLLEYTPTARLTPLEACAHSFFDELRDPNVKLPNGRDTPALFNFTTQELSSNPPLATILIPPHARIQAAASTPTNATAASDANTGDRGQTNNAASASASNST
Outline: as §1

[13] = molecular target: MINK1 (Homo sapiens, UniProt Q8N4C8); conditions: 100 μM compound, 50 μM ATP; read-out: Kinase activity, % of activity in the absence of inhibitor
MINK1, sequence (Q8N4C8 whole entry): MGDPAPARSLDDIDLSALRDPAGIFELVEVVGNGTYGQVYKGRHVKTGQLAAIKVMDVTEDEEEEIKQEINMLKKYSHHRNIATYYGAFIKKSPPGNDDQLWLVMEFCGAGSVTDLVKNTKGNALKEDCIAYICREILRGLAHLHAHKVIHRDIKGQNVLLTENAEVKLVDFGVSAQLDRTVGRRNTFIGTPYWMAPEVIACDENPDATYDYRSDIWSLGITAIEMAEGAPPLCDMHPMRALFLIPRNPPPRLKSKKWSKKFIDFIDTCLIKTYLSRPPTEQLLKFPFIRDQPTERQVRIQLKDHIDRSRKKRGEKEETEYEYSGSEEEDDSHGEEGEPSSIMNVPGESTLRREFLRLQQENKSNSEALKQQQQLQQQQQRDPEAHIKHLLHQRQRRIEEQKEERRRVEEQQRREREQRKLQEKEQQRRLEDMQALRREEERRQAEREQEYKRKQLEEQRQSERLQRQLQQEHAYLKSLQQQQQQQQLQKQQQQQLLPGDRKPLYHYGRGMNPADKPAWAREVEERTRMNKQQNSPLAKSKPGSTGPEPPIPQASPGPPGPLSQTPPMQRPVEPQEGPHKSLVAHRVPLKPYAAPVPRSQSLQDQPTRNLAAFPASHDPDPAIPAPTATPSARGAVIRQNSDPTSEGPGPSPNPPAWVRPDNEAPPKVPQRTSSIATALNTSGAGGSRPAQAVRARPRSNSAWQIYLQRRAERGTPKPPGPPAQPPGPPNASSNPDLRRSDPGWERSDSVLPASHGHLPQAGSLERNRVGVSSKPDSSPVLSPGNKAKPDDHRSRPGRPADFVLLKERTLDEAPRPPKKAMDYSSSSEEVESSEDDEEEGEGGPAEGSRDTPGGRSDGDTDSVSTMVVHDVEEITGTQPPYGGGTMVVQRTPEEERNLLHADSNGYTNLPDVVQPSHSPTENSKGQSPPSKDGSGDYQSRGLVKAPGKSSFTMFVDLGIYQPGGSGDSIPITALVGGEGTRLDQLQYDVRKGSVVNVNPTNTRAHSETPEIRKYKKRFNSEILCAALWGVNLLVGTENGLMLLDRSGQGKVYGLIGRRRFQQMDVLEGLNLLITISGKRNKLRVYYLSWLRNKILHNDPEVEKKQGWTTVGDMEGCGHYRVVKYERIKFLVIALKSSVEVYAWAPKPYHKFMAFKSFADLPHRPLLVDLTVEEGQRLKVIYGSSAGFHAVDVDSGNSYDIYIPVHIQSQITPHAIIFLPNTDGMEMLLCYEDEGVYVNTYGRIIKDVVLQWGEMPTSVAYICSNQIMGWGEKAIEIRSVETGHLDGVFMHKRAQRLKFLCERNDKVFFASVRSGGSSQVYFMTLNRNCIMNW
Outline: as §1

[14] = molecular target: CDK2-Cyclin A (Homo sapiens, UniProt P24941); conditions: 100 μM compound, 20 μM ATP; read-out: Kinase activity, % of activity in the absence of inhibitor
Outline: as §1

## CC(C)(COP(=O)(O)OP(=O)(O)OC[C@H]1O[C@@H](n2cnc3c(N)ncnc32)[C@H](O)[C@@H]1OP(=O)(O)O)[C@@H](O)C(=O)NCCC(=O)NCCS [CoA, Coenzyme A]
[1]
  activity at 100 µM: 127%
[2]
  activity at 100 µM: 85.4%
[3]
  activity at 100 µM: 116%
[4]
  activity at 100 µM: 148%
[5]
  activity at 100 µM: 92.6%
[6]
  activity at 100 µM: 89.1%
[7]
  activity at 100 µM: 95.1%
[8]
  activity at 100 µM: 109%
[9]
  activity at 100 µM: 70.6%
[10]
  activity at 100 µM: 70.2%
[11]
  activity at 100 µM: 67.9%
[11]; kinase profiling, 100 μM
  BTK inhibition (in words): modestly inhibited
[12]
  activity at 100 µM: 94.7%
[13]
  activity at 100 µM: 106%
[14]
  activity at 100 µM: 93.2%

## CC(C)(COP(=O)(O)OP(=O)(O)OCC1OC(n2cnc3c(N)ncnc32)C(O)C1O)C(O)C(=O)NCCC(=O)NCCS (stereo not shown) [dpCoA, dephospho-CoA]
[1]
  activity at 100 µM: 65.9%
[2]
  activity at 100 µM: 82.4%
[3]
  activity at 100 µM: 89.1%
[4]
  activity at 100 µM: 100%
[5]
  activity at 100 µM: 54.9%
[6]
  activity at 100 µM: 30.5%
[7]
  activity at 100 µM: 91.2%
[8]
  activity at 100 µM: 80.1%
[9]
  activity at 100 µM: 86%
[10]
  activity at 100 µM: 66.4%
[11]
  activity at 100 µM: 30.6%
[12]
  activity at 100 µM: 72.1%
[13]
  activity at 100 µM: 104%
[14]
  activity at 100 µM: 81.1%

## Nc1ncnc2c1ncn2C1OC(COP(=O)(O)OP(=O)(O)O)C(O)C1O (stereo not shown) [ADP]
[1]
  activity at 100 µM: 26%
[2]
  activity at 100 µM: 53.9%
[3]
  activity at 100 µM: 60.9%
[4]
  activity at 100 µM: 42.1%
[5]
  activity at 100 µM: 18.5%
[6]
  activity at 100 µM: 35.5%
[7]
  activity at 100 µM: 16.2%
[8]
  activity at 100 µM: 33.9%
[9]
  activity at 100 µM: 79.5%
[10]
  activity at 100 µM: 71.9%
[11]
  activity at 100 µM: 18.2%
[12]
  activity at 100 µM: 18.2%
[13]
  activity at 100 µM: 49.4%
[14]
  activity at 100 µM: 26.3%
